In data set [1] the test system is Tetrahymena cells. As to the kind of experiment: Telomere length in vegetatively grown Tetrahymena by Southern blot. To be noted: up to 1 mM, 5 days of subculturing (15-20 cell generations), 2% PPYS. Format: cell-based, Tetrahymena thermophila. As for the experimental part:
(§1) For analysis of macronuclear DNA from cultures containing the nucleoside analog AZT (Sigma), or controls lacking analog, at various timepoints during vegetative divisions, cells from stationary stock cultures were inoculated into 25 ml thymine-deficient Iso-sensitest broth (‘Isobroth’, Oxoid USA) in 250 ml flasks. Cultures were incubated at 30° C. with shaking (100 rpm) for 48 hours. Cells were counted and plated at 1000 cells/1.5 ml in 24-well plates (Falcon) and grown at 30° C., without shaking, for 48 hours. 5 μl of these log phase cells were used to inoculate 1 ml cultures (Isobroth) containing varied concentrations of nucleoside analog. Thereafter, every 2-4 days cells were transferred, either 5 μl per well, or 1-3 μl using a multi-pronged replicator into fresh 1 ml broth containing AZT. Remaining cells were pelleted and stored at −80° C. until processed for DNA analysis.
(§2) For analysis of macronuclear DNA from vegetative cultures containing the nucleoside analogs Ara-G (Calbiochem), ddG (Calbiochem), or ddI (Calbiochem), or controls lacking analog, stock cultures were grown overnight in 2% PPYS as described. Cells were counted and plated at 100 cells/2 ml in 2% PPYS containing varied amounts of analog, 1% DMSO (Fisher) (as a control for ddG and Ara-G), or 2% PPYS alone. Cells were replica plated into fresh medium every 2-6 days, and remaining cells were pelleted and stored at −80° C. until processed for DNA analysis.
For analysis of macronuclear DNA from vegetative cultures containing d4T (Sigma) or control lacking the analog, stock cultures (SB210 VI) were grown overnight in Isobroth as described. Cells were then counted and duplicate cultures inoculated at 500 cells/5 ml Isobroth in 50 ml conical tubes, and grown at 30° C., shaking 80 rpm. 500-2000 cells were transfered to fresh broth every 2-4 days, and the remainder pelleted and stored at −80° C. until processed for DNA analysis.
Restriction digests, agarose gel electrophoresis, transfer of DNA to Nytran filters (Schleicher and Schuell), and hybridization with ^32P-nick-trapplated or random-primed probes were carried out using standard procedures (Maniatis et.al. 1989). Telomere length was analyzed as described previously for Tetrahymena [Larson 50 Cell, 477, 1987].
Telomere lengths in cells grown in the presence of the different analogs were monitored by Southern blot analysis of DNA samples extracted at a series of time points during the subculturings. The telomeres of cells grown vegetatively in 1 and 5 mM AZT in 2% PPYS medium were reproducibly shortened by up to an average of 170 base pairs compared with the control cultures grown in 2% PPYS in the absence of the drug (FIG. 21A and B). This shortening of telomeres occured in a concentration-dependent manner (FIG. 21B), with at least 50% of the maximal shortening effect occurring by 10 μM AZT, the lowest concentration tested.

Data set [2] deals with Tetrahymena cells. Nature of the data set: Progeny formation (cycloheximide resistance) of Tetrahymena conjugated in the presence of analog. Format: cell-based, Tetrahymena thermophila. Particulars: for # CHX-R: number of cycloheximide-resistant wells; for irreversible disruption of macronuclear development: analog present during conjugation. As for the experimental part: For analysis of cycloheximide (CHX) sensitivity of cells conjugated in the presence of analog, 50 ml cultures of each cell type were grown overnight in 2% PPYS, starved in Dryl's for 18 hours, mated (5×10^5 cells/ml) for 6 hours, then analog was added. Cells were allowed to complete mating in the presence of the analog. Twenty-four hours after mixing, cells were diluted in Dryl's solution, counted and plated at 1 cell per well of 96-well plates in 1% PPYS without analog. Cells were grown for 4 days in a humid chamber at 30° C., without shaking. Cells were then replica plated into 1% PPYS plus 15 μg/ml cycloheximide, allowed to grow for four days before scoring, and percent of CHX-resistant wells was calculated. Because generation of progeny expressing the cycloheximide marker requires successful production of a new macronucleus, cells whose macronuclear development was disrupted by the analog are killed in CHX.
This process involves de novo formation of new macronuclear telomeres in the progeny cells. Macronuclear development in ciliated protozoans such as Tetrahymena involves developmentally programmed, site-specific fragmentation of germline chromosomes into linear subchromosomes, whose ends are healed by de novo addition of telomeres. […] Because of the immediate requirement for telomere addition to fragmented DNA, it is possible that the latter process might be more sensitive to telomerase inhibition than telomere maintenance during vegetative growth. To test whether nucleoside analogs cause inhibition of macronuclear development due to a disruption of telomere formation, we mated two strains of Tetrahymena which are sensitive to cycloheximide, but whose progeny after mating are resistant to cycloheximide. Synchronized mated cells were treated with AZT at concentrations ranging from 10 μM to 5 mM for a period beginning just prior to when macronuclear development begins and continuing during macronuclear development (the period 6-24 hours after mating was initiated). […] In attempts to maximize the effect of AZT, cells were either refed at 6 hrs with 2% PPYS or Isobroth, or starved until 24 hrs (the duration of the AZT treatment). Such starvation arrests macronuclear development at an intermediate stage. When refed, macronuclear development would then be forced to proceed in the presence of the AZT. Control, unmated parental cells were also plated and exposed to drug.

For data set [3], the system named is Tetrahymena cells. Nature of the data set: Growth, morphology and senescence of Tetrahymena mass-transfer cultures with nucleoside analogs. The class given is cell-based, Tetrahymena thermophila. To be noted: 2% PPYS plus, mass transfer. As for the experimental part: as §1, §2
To test whether such a phenotype could be produced by inhibitors of telomerase in Tetrahymena, duplicate log-phase cultures were grown for prolonged periods in the presence of varying concentrations of analogs. The growth and cell morphology of these cultures were monitored, and DNA was isolated at different times for telomere length analysis. […] From growth rate measurements it was calculated that the cells went through 150 to 250 cell generations in the course of this 50 day period.

In data set [4] the test system is Tetrahymena cells. As to the kind of experiment: Single-cell transfer cultures of Tetrahymena with AZT or Ara-G. Format: cell-based, Tetrahymena thermophila. Particulars: 10 μM AZT; 10 μM or 1 mM Ara-G; 1 to 10 cells per well. On the procedure:
For analysis of vegetative growth and macronuclear DNA from single-cell cultures containing the nucleoside analogs AZT or Ara-G, SB210 (VI) cells were grown from stationary stock cultures overnight at 30° C. with shaking (100 rpm) in 50 ml 2% PPYS or Isobroth. Cells were counted and added to the appropriate medium plus analog (Ara-G to 1 mM or DMSO to 1% as control in 2% PPYS; AZT to 10 μm or 1 mM, or no addition as control in Isobroth) and plated in 96-well plates (Falcon), 100 μl per well at a density of 1 cell per well. 5 plates were prepared for each analog or control. Wells were scored for cell growth and plates were replica plated every 1-2 days (Ara-G and DMSO plates) or every 2-4 days (AZT and Isobroth control plates) to maintain approximate inoculation densities of 1-10 cells per well for each passage. Occasionally individual wells were passaged by hand (1 μl inoculated per well using a pipettor) into several blank wells, to expand the number of live wells per plate as single-cell cultures were lost over time due to low probability of being transferred at each passage. After passaging, cells were pooled, pelleted and stored at −80° C. until processed for DNA analysis.
To test whether we had missed such a subpopulation of cells, we carried out the same experiments on vegetatively dividing Tetrahymena cells in the presence and absence of drug, but in these experiments the subculturing was carried out by plating cells at an average of 1 to 10 cells per well in microtiter plate wells in the presence of 10 μM and 1 mM AZT, and 10 μM and 1 mM Ara-G. For each drug, cells were plated out in this manner for 30 consecutive days (90 to 150 cell generations) and 16 consecutive days (50 to 80 cell generations) respectively for the 10 μM and 1 mM drug concentrations. DNA was isolated at intervals from combined samplings of the wells for analysis of telomere length.

For data set [5], the target named is T1, human telomerase obtained from the tumor cell line 296 (Homo sapiens, UniProt O14746).
T1 construct: human telomerase obtained from the tumor cell line 296; endogenous in cells; host or cells: tumor cell line 296 (so in the source)
T1 sequence (O14746 whole entry): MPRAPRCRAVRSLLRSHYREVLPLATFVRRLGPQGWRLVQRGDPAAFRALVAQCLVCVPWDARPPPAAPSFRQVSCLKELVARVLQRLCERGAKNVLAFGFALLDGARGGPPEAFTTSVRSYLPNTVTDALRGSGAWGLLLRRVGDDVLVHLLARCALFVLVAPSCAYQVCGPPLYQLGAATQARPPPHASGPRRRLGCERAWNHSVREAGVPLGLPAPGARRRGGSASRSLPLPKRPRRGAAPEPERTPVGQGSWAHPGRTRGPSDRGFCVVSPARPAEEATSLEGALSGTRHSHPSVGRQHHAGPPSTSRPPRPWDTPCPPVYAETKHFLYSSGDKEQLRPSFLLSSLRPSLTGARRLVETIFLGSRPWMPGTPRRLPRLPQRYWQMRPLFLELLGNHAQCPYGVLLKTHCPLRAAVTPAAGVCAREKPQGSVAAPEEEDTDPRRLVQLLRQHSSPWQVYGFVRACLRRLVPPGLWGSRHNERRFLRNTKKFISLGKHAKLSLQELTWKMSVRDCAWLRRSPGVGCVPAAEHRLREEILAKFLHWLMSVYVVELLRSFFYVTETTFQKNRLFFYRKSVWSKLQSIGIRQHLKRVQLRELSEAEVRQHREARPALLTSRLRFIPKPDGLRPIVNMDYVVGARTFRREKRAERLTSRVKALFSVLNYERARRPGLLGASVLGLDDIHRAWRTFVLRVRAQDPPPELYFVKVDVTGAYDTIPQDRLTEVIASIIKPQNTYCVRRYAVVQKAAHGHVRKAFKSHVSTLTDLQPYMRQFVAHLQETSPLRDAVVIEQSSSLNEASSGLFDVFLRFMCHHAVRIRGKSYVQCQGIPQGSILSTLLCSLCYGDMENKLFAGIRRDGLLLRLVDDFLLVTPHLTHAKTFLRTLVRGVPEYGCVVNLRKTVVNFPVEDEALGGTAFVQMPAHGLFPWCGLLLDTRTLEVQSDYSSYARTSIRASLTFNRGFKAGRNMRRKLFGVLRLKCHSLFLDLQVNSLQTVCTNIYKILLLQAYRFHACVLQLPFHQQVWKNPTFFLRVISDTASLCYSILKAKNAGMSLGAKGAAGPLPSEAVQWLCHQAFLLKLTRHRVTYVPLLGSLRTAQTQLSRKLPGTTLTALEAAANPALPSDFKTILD
T1 sequence (O60832 whole entry partner): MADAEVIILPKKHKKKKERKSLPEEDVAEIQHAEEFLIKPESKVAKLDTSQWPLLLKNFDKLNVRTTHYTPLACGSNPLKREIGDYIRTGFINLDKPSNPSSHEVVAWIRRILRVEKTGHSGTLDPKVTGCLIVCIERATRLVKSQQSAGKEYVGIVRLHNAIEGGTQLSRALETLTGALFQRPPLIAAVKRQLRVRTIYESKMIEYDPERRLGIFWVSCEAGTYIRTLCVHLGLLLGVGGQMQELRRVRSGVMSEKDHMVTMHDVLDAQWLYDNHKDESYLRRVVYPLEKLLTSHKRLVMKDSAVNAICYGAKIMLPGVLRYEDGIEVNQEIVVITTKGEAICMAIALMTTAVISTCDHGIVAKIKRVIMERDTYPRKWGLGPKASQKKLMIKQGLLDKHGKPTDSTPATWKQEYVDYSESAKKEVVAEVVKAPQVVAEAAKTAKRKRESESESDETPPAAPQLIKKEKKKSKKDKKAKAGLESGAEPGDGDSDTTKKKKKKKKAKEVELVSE
T1 sequence (Q9NPE3 whole entry partner): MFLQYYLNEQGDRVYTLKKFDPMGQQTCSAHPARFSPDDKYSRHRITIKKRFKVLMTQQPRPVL
T1 sequence (Q9NX24 whole entry partner): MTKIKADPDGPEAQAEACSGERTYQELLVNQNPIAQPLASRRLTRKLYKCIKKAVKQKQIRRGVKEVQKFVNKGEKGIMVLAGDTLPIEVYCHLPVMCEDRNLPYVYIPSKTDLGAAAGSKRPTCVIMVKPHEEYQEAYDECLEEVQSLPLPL
T1 sequence (Q9NY12 whole entry partner): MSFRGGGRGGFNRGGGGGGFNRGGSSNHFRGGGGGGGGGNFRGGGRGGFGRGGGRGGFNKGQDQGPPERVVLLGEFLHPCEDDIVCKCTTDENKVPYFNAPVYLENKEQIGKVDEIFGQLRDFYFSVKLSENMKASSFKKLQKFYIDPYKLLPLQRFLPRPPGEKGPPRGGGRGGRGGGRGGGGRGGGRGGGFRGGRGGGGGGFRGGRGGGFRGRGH
As to the kind of experiment: Inhibition of human telomerase from a tumor cell line. Format: biochemical.

In data set [6] the test system is lymphoma cell line JY 616. As to the kind of experiment: Growth of cultured JY lymphoma cells with potential telomerase inhibitors. Format: cell-based, human. Particulars: 20 μM. On the procedure:
The effect of the agents on telomerase activity in intact cells was then studied utilizing the lymphoma cell line JY 616 which were maintained in RPMI 1640 with […] Hepes, 10% FCS, and penicillin/streptomycin (Gibco). The cells were cultured in 6-well plates (Falcon) with 5.0 ML of medium per well in duplicate. Cells were passaged every 7-10 days which corresponded to 5-7 mean population doublings (MPD), and seeded at 3×10^4 cells per well into fresh medium containing analog or control. Cell viability was monitored prior to harvest utilizing trypan blue stain (Gibco) during counting with a hemocytometer. The average ratio of stained: unstained cells (dead:alive) was […]. The intactness of the DNA was measured on a parallel gel by observing its mobility in a gel prior to digestion by a restriction enzyme.

The subject of data set [7] is MDA 157 human breast cancer cells. As to the kind of experiment: Proliferation of MDA 157 cancer cells fed oligonucleotides (Example 2). Format: cell-based. As for the experimental part: Specifically, MDA 157 human breast cancer cells with an immortal phenotype were seeded at 10,000 cells per well in 12 well tissue culture dishes and fed medium only or medium supplemented with GTO-12 (at 1.0 μM, 0.1 μM, and 0.01 μM). […] Cells fed the GTO-12 oligonucleotide, at 1.0 μM, however, ceased to proliferate after less than 10 doubling. […] The lack of effect of the G+C mixture may reflect the CTO-12 oligonucleotide, competing with or base pairing with the GTO-12 oligonucleotide, this preventing its inhibitory effect on the cancer cell telomerase.

Data set [8] relates to IDH4 immortalized human fibroblast cell line. As to the kind of experiment: IDH4 cells incubated with GTO: population doublings and TRF length (Example 12). The class given is cell-based. To be noted: for population doublings in 90 days: fed every other day (control 45 PDL). On the procedure:
As in Example 2, an immortalized human fibroblast cell line, IDH4, which has very short TRFs, was incubated with GTO oligonucleotide. Referring to FIGS. 15 and 16, cells were incubated in regular culture medium containing serum in the presence of 10 μM, 30 μM and 100 μM GTO. The cells were fed fresh phosphodiester GTO oligonucleotide every other day and subcultured when confluent for a total of 90 days. The cells were still growing in GTO after 90 days at all concentrations used even though they grew more slowly at the higher GTO concentrations and went through fewer population doubling (control, 45 PDL; 10 μM GTO 40 PDL; 30 μM 35 PDL; 100 μM 25 PDL). […] The control and 30 μM GTO were passaged without oligonucleotide addition for an additional 90 days (approximately 35-40 PDL). As is illustrated in FIG. 16, the TRFs slowly shorten.

Setting [9] is: 0.01 mM analog (head prints MM), first block for the analog.
Setting [10] is: 0.01 mM analog, first block for the analog.
Setting [11] is: 0.1 mM analog (head prints MM), first block for the analog.
[12] abbreviates: 0.1 mM analog, first block for the analog.
Where [13] appears, read: 1.0 mM analog (head prints MM), first block for the analog.
Setting [14] is: 1.0 mM analog, first block for the analog.

On to `O=c1[nH]cnc2c1ncn2[C@H]1CC[C@@H](CO)O1` [ddI], for which the “telomere length compared with control cultures” value with Tetrahymena cells [1] is “no changes in telomere length”. The “% CHX-R” value came to 83% in the data set with Tetrahymena cells [2] (0.001 mM analog (head prints MM), first block for the analog); 89% with Tetrahymena cells [2] (setting [9]); 78% in the data set on Tetrahymena cells [2] (setting [11]); 91% in the data set on Tetrahymena cells [2] (setting [13]). Further, the “# CHX-R” value with Tetrahymena cells [2] (0.001 mM analog, first block for the analog) turned out to be 59; in the data set on Tetrahymena cells [2] (setting [10]) it was 85; in the data set with Tetrahymena cells [2] (setting [12]), 83; with Tetrahymena cells [2] (setting [14]), 100. Moreover, in the data set with Tetrahymena cells [2], the “irreversible disruption of macronuclear development” value is “little or no irreversible disruption”.
In the case of `Nc1nc2c(ncn2[C@@H]2O[C@H](CO)[C@@H](O)[C@@H]2O)c(=O)[nH]1` [Ara-G], the “cell doubling rate, morphology, long term viability” value in the data set with Tetrahymena cells [3] is “no effects on cell doubling rate, morphology or long term viability”. Moreover, the “plating efficiency compared with control medium” value in the data set with Tetrahymena cells [4] was “no changes in the plating efficiency”. In addition, the “% CHX-R” value in the data set with Tetrahymena cells [2] (setting [9]) is 81%; in the data set with Tetrahymena cells [2] (setting [11]), 80%; in the data set on Tetrahymena cells [2] (setting [13]), 55%; with Tetrahymena cells [2] (1.0 mM analog (head prints MM), second block for the analog), 59%; in the data set on Tetrahymena cells [2] (2.0 mM analog (head prints MM), second block for the analog) it was 43%. The “# CHX-R” value is listed as 114 with Tetrahymena cells [2] (setting [10]); 134 with Tetrahymena cells [2] (setting [12]); 89 with Tetrahymena cells [2] (setting [14]); 51 with Tetrahymena cells [2] (1.0 mM analog, second block for the analog); 40 in the data set on Tetrahymena cells [2] (2.0 mM analog, second block for the analog). For the same compound, the “irreversible disruption of macronuclear development” value in the data set with Tetrahymena cells [2] is on record as “little or no irreversible disruption”. Further, in data set [5], the “inhibition of human telomerase” value is “effective inhibitors of human telomerase”. For the same compound, the cell growth entry in data set [6] is “slowed growth”.
For the compound “5′-TTAGGGTTAGGG-3′ (listed as DNA, chemistry not given here) [GTO-12, guanidine-rich terminal oligonucleotide-12 bp]”, the “doublings after which cells ceased to proliferate” value in data set [7] (1.0 μM) is listed as “less than 10 doubling”. For the same compound, in data set [7] (doses of less than 1.0 μM (0.1 μM, 0.01 μM)), the proliferation phenotype entry is reported as “continued replicating in an immortal phenotype”. Also, the “TRF length after 90 days” value in data set [8] (10 μM, 30 μM and 100 μM) is reported as “regained TRF length in a dose dependent manner”. Besides, the “population doublings in 90 days” value is given as 40 PDL in data set [8] (10 μM), 35 PDL in data set [8] (30 μM) and 25 PDL in data set [8] (100 μM).

The values above are taken from patent US6551774B1, “Diagnostic methods for conditions associated with elevated cellular levels of telomerase activity” (Board of Regents, The University of Texas System, priority 1992, dated 2003).
